Measured values from the supplement of paper PMC10307832.

Legend:
[1] = compound: COc1cccc2c1C(=O)c1c(O)c3c(c(O)c1C2=O)C[C@@](O)(C(=O)CO)C[C@@H]3O[C@H]1C[C@H](N)[C@H](O)[C@H](C)O1 [Doxorubicin] + Cc1nc(Nc2ncc(C(=O)Nc3c(C)cccc3Cl)s2)cc(N2CCN(CCO)CC2)n1 [Dasatinib] (partner 0.075 µM); assay: relative viability (nuclei count vs DMSO), 5 days (fraction); higher = more cells survive
Summary of the method: (§1)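 Relative viability divides the nuclei count in treated wells by that in vehicle wells. Lung cancer cell lines were seeded in 1536-well plates, dosed by pin tool the next day, and fixed and stained after 5 days in one step with final 0.05% Triton X-100, 1% formaldehyde and 1 ug/ml Hoechst. Dosing was a single drug or a fixed anchor-drug dose plus five library-drug doses (not always all listed) in √10 steps, and values are medians of duplicate plates imaged at 4×.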

[2] = compound: COC1=C(C=C(C=C1)C2=CC3=NC=CN3C(=N2)NC4=C(C=CC=N4)C(=O)N)OC [BAY61-3606] + CC(=O)Nc1cccc(-n2c(=O)n(C3CC3)c(=O)c3c(Nc4ccc(I)cc4F)n(C)c(=O)c(C)c32)c1 [Trametinib] (partner 0.02 µM); assay: as above
Summary of the method: as §1

| Cell Line | relative viability ([1]; first compound 0.001 µM) | relative viability ([1]; first compound 0.003162 µM) | relative viability ([1]; first compound 0.01 µM) | relative viability ([1]; first compound 0.03162 µM) | relative viability ([1]; first compound 0.1 µM) | relative viability ([2]; first compound 0.02 µM) | relative viability ([2]; first compound 0.06325 µM) | relative viability ([2]; first compound 0.2 µM) | relative viability ([2]; first compound 0.6325 µM) | relative viability ([2]; first compound 2 µM) |
| --- | --- | --- | --- | --- | --- | --- | --- | --- | --- | --- |
| NCI-H1563 | 0.481 | 0.505 | 0.45 | 0.462 | 0.483 | – | – | – | – | – |
| COR-L23 | 0.466 | 0.629 | 0.486 | 0.27 | 0.128 | 0.725 | 0.668 | 0.635 | 0.751 | 0.558 |
| ABC-1 | 0.612 | 0.56 | 0.511 | 0.33 | 0.224 | – | – | – | – | – |
| NCI-H522 | 0.724 | 1.04 | 0.873 | 0.776 | 1 | 0.607 | 0.723 | 0.818 | 0.764 | 0.688 |
| SW 1573 | 0.544 | 0.452 | 0.174 | 0.106 | 0.0634 | 0.566 | 0.668 | 0.533 | 0.578 | 0.341 |
| SW 900 | 0.544 | 0.66 | 0.461 | 0.36 | 0.406 | 0.877 | – | – | 0.87 | 0.585 |
| A-427 | 0.745 | 0.743 | 0.621 | 0.721 | 0.673 | 0.902 | 0.755 | 0.782 | 0.798 | 0.817 |
| NCI-H1915 | 0.281 | 0.355 | 0.308 | 0.302 | 0.324 | 0.35 | 0.29 | 0.325 | 0.315 | 0.246 |
| LOU-NH91 | 0.488 | 0.646 | 0.529 | 0.531 | 0.474 | 0.842 | 0.766 | 0.826 | 0.794 | 0.706 |
